Like-named read-outs stand apart in the source and are kept apart here. Where a SMILES comes first, the peptide text is derived from it. Bridges are numbered along the chain shown (N, C = ends). [ ]: non-standard residue; d: D form. hArg = N=C(N)NCCCC[C@H](N)C(=O)O; Mpa = O=C(O)CCS
Key:
M21 melanoma cells = test: M21 melanoma cell adhesion to vitronectin-coated plates; assay type: cell-based
Protocol: M21 melanoma cells were labelled with ^35 S-methionine, and then added to vitronectin-coated plates in the presence of the indicated concentrations of purified snake venom peptides. Cell attachment was measured by solubilizing the cells remaining after an incubation and wash, as previously describe.

[1] = molecular target: ADP-induced human platelet aggregation (Homo sapiens, UniProt P05106+P08514); test: standard aggregation inhibition assay (ADP-induced human platelet aggregation); assay type: cell-based; settings: for IC50: ADP-induced human platelet aggregation, read-out: Appr, IC50
Chain of ADP-induced human platelet aggregation (P08514 32-1039): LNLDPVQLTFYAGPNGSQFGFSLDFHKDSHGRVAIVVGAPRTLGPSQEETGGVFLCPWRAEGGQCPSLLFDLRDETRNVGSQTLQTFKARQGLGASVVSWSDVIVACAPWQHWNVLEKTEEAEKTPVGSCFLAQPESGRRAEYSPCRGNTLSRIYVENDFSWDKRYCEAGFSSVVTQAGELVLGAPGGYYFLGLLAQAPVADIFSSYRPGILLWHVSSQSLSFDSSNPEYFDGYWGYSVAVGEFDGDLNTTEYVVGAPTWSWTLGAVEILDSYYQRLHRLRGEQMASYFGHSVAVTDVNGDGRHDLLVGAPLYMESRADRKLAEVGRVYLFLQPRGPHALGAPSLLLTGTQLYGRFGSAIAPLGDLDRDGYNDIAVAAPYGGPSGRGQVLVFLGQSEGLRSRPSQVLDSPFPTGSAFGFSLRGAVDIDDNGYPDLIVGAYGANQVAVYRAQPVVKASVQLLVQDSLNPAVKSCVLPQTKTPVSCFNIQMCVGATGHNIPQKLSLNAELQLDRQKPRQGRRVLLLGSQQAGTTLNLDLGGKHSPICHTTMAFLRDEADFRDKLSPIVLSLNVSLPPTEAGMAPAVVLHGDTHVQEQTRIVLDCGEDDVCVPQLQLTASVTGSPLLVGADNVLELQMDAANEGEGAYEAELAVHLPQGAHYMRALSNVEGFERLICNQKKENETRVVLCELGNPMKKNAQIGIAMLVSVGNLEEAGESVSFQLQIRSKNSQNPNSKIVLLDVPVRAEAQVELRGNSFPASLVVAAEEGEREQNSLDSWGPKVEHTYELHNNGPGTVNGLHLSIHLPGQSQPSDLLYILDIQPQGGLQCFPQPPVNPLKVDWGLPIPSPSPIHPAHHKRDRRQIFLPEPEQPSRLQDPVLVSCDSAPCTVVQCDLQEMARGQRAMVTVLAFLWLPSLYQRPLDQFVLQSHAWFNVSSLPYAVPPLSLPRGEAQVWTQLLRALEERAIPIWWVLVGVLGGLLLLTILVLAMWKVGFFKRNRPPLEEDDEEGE
Chain of ADP-induced human platelet aggregation (P05106 27-788): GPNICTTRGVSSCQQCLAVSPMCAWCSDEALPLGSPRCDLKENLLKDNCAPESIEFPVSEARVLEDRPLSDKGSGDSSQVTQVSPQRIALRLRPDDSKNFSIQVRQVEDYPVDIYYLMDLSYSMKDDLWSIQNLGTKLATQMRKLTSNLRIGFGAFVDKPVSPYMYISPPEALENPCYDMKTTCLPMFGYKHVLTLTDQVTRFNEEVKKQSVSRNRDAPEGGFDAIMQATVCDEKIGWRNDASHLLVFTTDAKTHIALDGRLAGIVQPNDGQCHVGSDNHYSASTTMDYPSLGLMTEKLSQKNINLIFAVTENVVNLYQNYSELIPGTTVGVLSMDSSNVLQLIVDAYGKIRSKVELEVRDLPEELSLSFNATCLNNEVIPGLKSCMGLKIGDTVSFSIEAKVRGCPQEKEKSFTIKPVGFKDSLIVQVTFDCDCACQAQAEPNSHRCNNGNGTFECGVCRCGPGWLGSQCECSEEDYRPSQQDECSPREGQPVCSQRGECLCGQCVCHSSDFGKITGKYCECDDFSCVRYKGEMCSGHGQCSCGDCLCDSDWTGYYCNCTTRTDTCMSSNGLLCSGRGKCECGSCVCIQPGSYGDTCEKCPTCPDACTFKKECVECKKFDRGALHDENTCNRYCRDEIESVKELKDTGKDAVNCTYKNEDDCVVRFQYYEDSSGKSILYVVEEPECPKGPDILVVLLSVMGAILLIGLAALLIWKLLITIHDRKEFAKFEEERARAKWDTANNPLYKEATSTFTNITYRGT
Source text: 2. Standard assays directly applied to platelet aggregation, such as those described by Gann, Z.-R., et al., J Biol Chem (1988) 263:19827-19832; Huang, T. F., et al., J Biol Chem (1987) 262:16157-16163; Biochemistry (1989) 28:661-666, cited above and incorporated herein by reference;

GP IIb-IIIa = molecular target: T1, GP IIb-IIIa (Homo sapiens, UniProt P05106+P08514); assay type: binding; settings: plate assays
T1 construct: GP IIb-IIIa, prepared in purified form; from tissue; own knowledge of the cited Fitzgerald et al. 1985 method
T1 sequence (P08514 32-887 limits assumed): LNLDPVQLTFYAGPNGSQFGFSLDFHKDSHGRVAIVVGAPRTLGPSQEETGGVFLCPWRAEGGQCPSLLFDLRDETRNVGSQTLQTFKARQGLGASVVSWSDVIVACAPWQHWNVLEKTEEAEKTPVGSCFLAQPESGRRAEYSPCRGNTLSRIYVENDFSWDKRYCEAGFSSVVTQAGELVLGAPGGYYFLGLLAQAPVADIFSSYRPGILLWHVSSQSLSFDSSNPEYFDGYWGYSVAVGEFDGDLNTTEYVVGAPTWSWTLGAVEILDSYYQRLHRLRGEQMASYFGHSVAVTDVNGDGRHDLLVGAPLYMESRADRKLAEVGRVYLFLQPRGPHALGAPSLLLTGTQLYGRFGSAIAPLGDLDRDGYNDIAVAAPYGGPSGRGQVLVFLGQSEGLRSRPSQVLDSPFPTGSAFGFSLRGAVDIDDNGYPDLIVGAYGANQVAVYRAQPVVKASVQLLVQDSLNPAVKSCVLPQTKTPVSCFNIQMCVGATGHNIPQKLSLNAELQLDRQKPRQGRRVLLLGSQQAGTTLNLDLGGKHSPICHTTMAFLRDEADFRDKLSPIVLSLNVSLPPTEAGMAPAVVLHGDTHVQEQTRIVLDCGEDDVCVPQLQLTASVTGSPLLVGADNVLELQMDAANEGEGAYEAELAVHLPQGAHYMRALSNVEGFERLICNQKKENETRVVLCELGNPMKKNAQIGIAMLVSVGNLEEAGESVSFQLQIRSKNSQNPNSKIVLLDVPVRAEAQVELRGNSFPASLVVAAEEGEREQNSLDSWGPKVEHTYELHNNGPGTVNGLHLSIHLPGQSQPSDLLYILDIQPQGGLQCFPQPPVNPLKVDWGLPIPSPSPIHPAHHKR
T1 sequence (P08514 891-1039 limits assumed): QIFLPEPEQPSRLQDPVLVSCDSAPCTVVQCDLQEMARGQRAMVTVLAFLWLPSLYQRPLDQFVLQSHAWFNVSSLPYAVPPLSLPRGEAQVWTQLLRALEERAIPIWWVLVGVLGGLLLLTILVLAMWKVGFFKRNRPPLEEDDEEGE
T1 sequence (P05106 27-788): as the sequence (P05106 27-788) above
Protocol: In the assay, GP IIb-IIIa, prepared in purified form, for example as described by Fitzgerald, L. A., et al., Anal Biochem (1985) 151:169-177, incorporated herein by reference, is coated onto a solid support such as beads, test tubes, or microtiter plates. The coated support is then contacted with fibrinogen and with the test material and incubated for a sufficient time to permit maximal binding of fibrinogen to the immobilized GP IIb-IIIa. Fibrinogen is typically provided at a concentration of about 5-50 nM and the test material can, if desired, be added at a series of dilutions. Typical incubations are 2-4 hr at 35° C., the time and temperature being interdependent.
After incubation, the solution containing the fibrinogen and test material is removed and the level of binding of fibrinogen measured by quantitating bound fibrinogen to GP IIb-IIIa. Any suitable means of detection can be used, but it is convenient to employ labeled fibrinogen, for example using radioactive, fluorescent or biotinylated labels. Such methods are well known and need not be elaborated here.
Assessment of the results is aided by employing a control sample, usually identical to the test sample except that the test substance is absent. In this case, percent inhibition may be calculated using the basis, so that [formula] Other measures of inhibition effectiveness, such as IC50, can also be used.

[2] = Protocol: 20 ml aliquots of the above solution were placed into Type I glass vials and sealed with rubber stoppers and aluminum closures under sterile conditions and stored at a constant temperature. Test sample vials from each temperature condition, -15° C., 5° C., 30° C. and 45° C. were removed periodically and individually assessed and analyzed for stability by HPLC and visual evaluation as described in Example 1.
[3] = Stability of polypeptide I in citrate buffer, HPLC and visual (Example 1); assay type: physicochemical; settings: citrate buffer pH 5.00 and 5.50 versus pH 6.0
Protocol: Citrate buffer solution is prepared by mixing citric acid in a volumetric flask to give a final citrate concentration of 25 mM with Nanopure water and adding NaOH to adjust the pH.
One ml aliquots of the above solution of polypeptide in citrate buffer were sealed in borosilicate glass ampules under sterile conditions and stored at a constant temperature. Test sample ampules from each pH and temperature condition 4° C., 50° C. and 70° C. were removed periodically, visually assessed and then analyzed separately by HPLC using a mobile phase comprising acetonitrile (MeCN) and 0.1% trifluoroacetic (TFA) in water. This stability was evaluated by conventional assay methods applicable to purity, weight or size of polypeptides. These included not only visual evaluations, such as discoloration, transparency and precipitation, and included assays normally applied to separate polypeptides from each other and from other materials by reversed phase high performance liquid chromatography (HPLC).
Results of these experiments are set forth in Table 1 in which the stability is expressed in terms of the percentage of main peak of original polypeptide found in the sample analyzed by HPLC. The composition was also found to be normal on visual evaluation.

vitronectin receptor = vitronectin receptor (Homo sapiens, UniProt P05106+P06756); test: plate assay, inhibition of vitronectin binding to vitronectin receptor; settings: at concentrations up to 1 uM
Chain of vitronectin receptor (P06756 31-889 limits assumed): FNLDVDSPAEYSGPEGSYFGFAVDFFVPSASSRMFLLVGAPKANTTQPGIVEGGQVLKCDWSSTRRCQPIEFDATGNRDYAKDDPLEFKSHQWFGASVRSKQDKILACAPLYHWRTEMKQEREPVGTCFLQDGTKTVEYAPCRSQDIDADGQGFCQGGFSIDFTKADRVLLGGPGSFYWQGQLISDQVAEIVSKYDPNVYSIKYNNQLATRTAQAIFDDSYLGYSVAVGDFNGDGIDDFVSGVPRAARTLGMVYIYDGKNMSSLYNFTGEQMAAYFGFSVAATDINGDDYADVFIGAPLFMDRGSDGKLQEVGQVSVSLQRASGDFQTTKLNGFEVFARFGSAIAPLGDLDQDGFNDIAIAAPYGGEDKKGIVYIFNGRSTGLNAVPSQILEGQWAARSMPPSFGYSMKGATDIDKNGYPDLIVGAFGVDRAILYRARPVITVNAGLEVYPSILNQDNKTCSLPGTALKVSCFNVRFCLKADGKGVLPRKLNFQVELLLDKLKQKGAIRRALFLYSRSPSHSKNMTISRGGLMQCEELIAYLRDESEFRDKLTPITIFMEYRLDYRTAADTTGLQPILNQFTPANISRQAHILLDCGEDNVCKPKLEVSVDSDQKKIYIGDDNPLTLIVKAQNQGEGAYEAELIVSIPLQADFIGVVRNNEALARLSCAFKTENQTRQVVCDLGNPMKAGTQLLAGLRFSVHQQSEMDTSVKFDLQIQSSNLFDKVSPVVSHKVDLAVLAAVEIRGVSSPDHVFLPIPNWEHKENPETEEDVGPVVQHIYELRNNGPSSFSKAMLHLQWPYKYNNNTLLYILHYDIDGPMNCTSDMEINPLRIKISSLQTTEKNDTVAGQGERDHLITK
Chain of vitronectin receptor (P06756 891-1048 limits assumed): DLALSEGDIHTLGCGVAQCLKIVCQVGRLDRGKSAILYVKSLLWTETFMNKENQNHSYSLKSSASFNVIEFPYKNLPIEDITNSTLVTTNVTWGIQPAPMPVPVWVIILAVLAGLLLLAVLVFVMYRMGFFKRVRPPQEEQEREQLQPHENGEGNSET
Chain of vitronectin receptor (P05106 27-788): as the sequence (P05106 27-788) above
Source text: The PAI assay systems further include characterization of the PAI specificity by binding inhibition assays identical to that above but substituting other adhesive proteins for Fg and other receptors for GP IIb-IIIa. In particular, inhibition of the binding of vitronectin to the vitronectin receptor; fibronectin to the fibronectin receptor; fibronectin to GP IIb-IIIa and fibrinogen and/or vWF to GP IIb-IIIa can be assessed. The adhesive protein and receptors for these assays are available in the art.

For C[C@H](NC(=O)[C@@H]1CSSC[C@H](NC(=O)CN)C(=O)NCC(=O)N[C@@H](CCCCN)C(=O)NCC(=O)N[C@@H](CC(=O)O)C(=O)N[C@@H](Cc2c[nH]c3ccccc23)C(=O)N2CCC[C@H]2C(=O)N1)C(N)=O [Analog #3, G-C-G-K-G-D-W-P-C-A-NH2], the “M21 cell attachment to vitronectin (in words)” value (“M21 cell attachment” for short) (M21 melanoma cells) was “ineffective up to 60 uM”.
For C[C@H](NC(=O)[C@@H]1CSSC[C@H](NC(=O)CN)C(=O)N[C@@H](CCCCN)C(=O)NCC(=O)N[C@@H](CC(=O)O)C(=O)N[C@@H](Cc2c[nH]c3ccccc23)C(=O)N2CCC[C@H]2C(=O)N1)C(N)=O [Analog #4, G-C-K-G-D-W-P-C-A-NH2] (H-GCKGDWPCA-NH2; disulfide 2-8), the IC50 [1] was 5 µM and the “differential fibrinogen/GP IIb-IIIa versus vitronectin/vitronectin receptor (in words)” value (GP IIb-IIIa) was “highest differential”.
With NCCCC[C@@H]1NC(=O)CNC(=O)[C@@H](N)CSSC[C@@H](C(N)=O)NC(=O)[C@@H]2CCCN2C(=O)[C@H](Cc2c[nH]c3ccccc23)NC(=O)[C@H](CC(=O)O)NC(=O)CNC1=O [Analog #5, C-G-K-G-D-W-P-C-NH2] (H-CGKGDWPC-NH2; disulfide 1-8) the IC50 [1] was 5 µM and the “differential fibrinogen/GP IIb-IIIa versus vitronectin/vitronectin receptor (in words)” value (GP IIb-IIIa) was “quite specific”.
In the case of N=C(N)NCCCC[C@@H]1NC(=O)CCSSC[C@@H](C(N)=O)NC(=O)[C@@H]2CCCN2C(=O)[C@H](Cc2c[nH]c3ccccc23)NC(=O)[C@H](CC(=O)O)NC(=O)CNC1=O [I, Mpr-L-homoarginine-Gly-Asp-Trp-Pro-Cys-NH2 .cndot.acetate] ([Mpa][hArg]GDWPC-NH2; disulfide 1-7), the “Peptide Stability in 5.5 pH Citrate Buffer Composition (HPLC as in Example 1)” value (“Peptide Stability” below) ([2]; 5° C., Time (days) 0) is reported as 98.8, the “Peptide Stability” value ([2]; 5° C., Time (days) 76) is reported as 98.6 and the “Peptide Stability” value ([2]; 5° C., Time (days) 126) is reported as 98.5. The “Peptide Stability” value ([2]; 5° C., Time (days) 222) was 98.5, the “Peptide Stability” value ([2]; 5° C., Time (days) 301) was 98.2 and the “Peptide Stability” value ([2]; 5° C., Time (days) 399) was 98.2. For the same molecule, the “Peptide Stability” value ([2]; 5° C., Time (days) 572) was 98.2, the “Peptide Stability” value ([2]; 30° C. after one month at 5° C., Time (days) 45) was 97.4 and the “Peptide Stability” value ([2]; 30° C. after one month at 5° C., Time (days) 95) was 96.4. For the same molecule, the “Peptide Stability” value ([2]; 30° C. after one month at 5° C., Time (days) 191) was 95.8, the “Peptide Stability” value ([2]; 30° C. after one month at 5° C., Time (days) 270) was 95.1 and the “Peptide Stability” value ([2]; 30° C. after one month at 5° C., Time (days) 368) was 94.5. For the same molecule, the “Peptide Stability” value ([2]; 30° C. after one month at 5° C., Time (days) 541) was 93.6, the “Peptide Stability” value ([2]; 45° C. after one month at 5° C., Time (days) 45) was 96.1 and the “Peptide Stability” value ([2]; 45° C. after one month at 5° C., Time (days) 95) was 94.1. The “Peptide Stability” value ([2]; 45° C. after one month at 5° C., Time (days) 191) was 92.4, the “Peptide Stability” value ([2]; 45° C. after one month at 5° C., Time (days) 270) was 89.8 and the “Peptide Stability” value ([2]; 45° C. after one month at 5° C., Time (days) 368) was 86.5. For the same molecule, the “Peptide Stability” value ([2]; 45° C. after one month at 5° C., Time (days) 541) was 76.1, the “Peptide Stability” value ([2]; -15° C. after one month at 5° C., Time (days) 45) was 98.9 and the “Peptide Stability” value ([2]; -15° C. after one month at 5° C., Time (days) 95) was 99.0. For the same molecule, the “Peptide Stability” value ([2]; -15° C. after one month at 5° C., Time (days) 191) was 99.1, the “Peptide Stability” value ([2]; -15° C. after one month at 5° C., Time (days) 270) was 98.7 and the “Peptide Stability” value ([2]; -15° C. after one month at 5° C., Time (days) 368) was 98.6. For the same molecule, the “Peptide Stability” value ([2]; -15° C. after one month at 5° C., Time (days) 541) was 98.9 and the “stability of liquid solution (in words)” value [3] was “unexpectedly very stable at about 4° C., still stable at up to about 50 °C and much more stable at 70 °C in comparison to citrate buffer solutions at pH 6.0”.
With C[C@H](NC(=O)[C@@H]1CSSC[C@H](NC(=O)CN)C(=O)NCC(=O)N[C@@H](CCCNC(=N)N)C(=O)NCC(=O)N[C@@H](CC(=O)O)C(=O)N[C@@H](Cc2c[nH]c3ccccc23)C(=O)N2CCC[C@H]2C(=O)N1)C(N)=O [reference compound] (H-GCGRGDWPCA-NH2; disulfide 2-9) the “M21 cell attachment” value (M21 melanoma cells) was “potent inhibitors of cell attachment”.
With “[E^28 L^41 C^64 ]barbourin (28-73) [Analog #1]” the “platelet aggregation inhibition activity (in words)” value [1] was “potent inhibitors of platelet aggregation”, the “affinity for VnR (in words)” value (vitronectin receptor) was “relative lack of affinity” and the “M21 cell attachment” value (M21 melanoma cells) was “Neither barbourin nor Peptide 1 (truncated barbourin) had a significant effect”.

— patent US5747447A, “Stable polypeptide composition” (COR Therapeutics, priority 1995, dated 1998)
